± gives the expanded uncertainty stated by the source.
How the values were obtained:
[1] = 298.15 K; 101.33 kPa; Liquid; Vibrating tube method
[2] = refractive index (Na D-line) (dimensionless); conditions: 298.15 K; 101.33 kPa; Liquid; Standard Abbe refractometry

Row | Compound | mass density [1] [kg/m3] | refractive index [2]
1 | Cc1ccccc1 [toluene] | 862.17 ± 0.13 | 1.49399 ± 0.00031
2 | CCCCCC [hexane] | 655.19 ± 0.2 | 1.37234 ± 0.00033
3 | CCCC[n+]1ccn(C)c1.O=S(=O)([N-]S(=O)(=O)C(F)(F)F)C(F)(F)F | 1436.35 ± 0.61 | 1.42706 ± 0.00037
4 | CCCn1cc[n+](C)c1.O=S(=O)([N-]S(=O)(=O)C(F)(F)F)C(F)(F)F | 1474.44 ± 0.65 | 1.42526 ± 0.00037
5 | CCc1ccccc1 [ethylbenzene] | 862.51 ± 0.13 | 1.49304 ± 0.00031

Other lines, results leading:

Row | mass density [1] [kg/m3] | refractive index [2] | Compound
6 | 1212.59 ± 0.41 | 1.47792 ± 0.00037 | CCCCn1cc[n+](C)c1.COS(=O)(=O)[O-] [1-butyl-3-methylimidazolium methyl sulfate]
7 | 805.69 ± 0.24 | 1.44378 ± 0.00037 | C1=CCCCC1 [cyclohexene]

From the NIST ThermoML archive (doi:10.1016/j.jct.2013.11.020)
